Laboratory results: ChEMBL document CHEMBL1133877, “2-Amino-4,6-diarylpyridines as novel ligands for the estrogen receptor” (Bioorg Med Chem Lett, 2001)

Key:
Estrogen receptor beta [1] = molecular target: T1, Estrogen receptor beta (Homo sapiens, UniProt Q92731)
Estrogen receptor [2] = molecular target: T2, Estrogen receptor (Homo sapiens, UniProt P03372)
T2 sequence (P03372 whole entry): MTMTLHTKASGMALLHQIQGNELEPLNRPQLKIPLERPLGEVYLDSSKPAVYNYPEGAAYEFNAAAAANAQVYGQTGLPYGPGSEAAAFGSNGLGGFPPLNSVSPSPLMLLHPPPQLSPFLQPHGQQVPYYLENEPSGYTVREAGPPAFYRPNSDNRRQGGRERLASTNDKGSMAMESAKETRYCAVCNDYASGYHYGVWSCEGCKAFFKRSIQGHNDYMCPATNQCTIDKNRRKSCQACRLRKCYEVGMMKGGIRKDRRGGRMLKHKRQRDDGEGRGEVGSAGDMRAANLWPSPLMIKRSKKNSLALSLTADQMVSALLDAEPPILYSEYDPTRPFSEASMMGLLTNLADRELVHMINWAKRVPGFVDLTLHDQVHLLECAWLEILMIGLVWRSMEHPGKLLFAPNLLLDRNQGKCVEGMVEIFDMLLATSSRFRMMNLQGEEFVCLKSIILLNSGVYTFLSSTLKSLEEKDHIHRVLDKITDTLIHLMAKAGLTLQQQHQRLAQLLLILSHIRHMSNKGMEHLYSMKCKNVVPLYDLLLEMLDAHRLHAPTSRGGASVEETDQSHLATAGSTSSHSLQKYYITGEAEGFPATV

Estrogen receptor beta [3] = molecular target: T1, Estrogen receptor beta; assay: Displacement of [3H]17-beta-estradiol from Estrogen receptor beta of bacterial lysate by scintillation proximity assay (SPA) at 10e-5 M; Inactive
Estrogen receptor [4] = molecular target: T2, Estrogen receptor; assay: Displacement of [3H]17-beta-estradiol from Estrogen receptor alpha of bacterial lysate by scintillation proximity assay (SPA) at 10e-5 M; Inactive

T1 sequence (Q92731 whole entry): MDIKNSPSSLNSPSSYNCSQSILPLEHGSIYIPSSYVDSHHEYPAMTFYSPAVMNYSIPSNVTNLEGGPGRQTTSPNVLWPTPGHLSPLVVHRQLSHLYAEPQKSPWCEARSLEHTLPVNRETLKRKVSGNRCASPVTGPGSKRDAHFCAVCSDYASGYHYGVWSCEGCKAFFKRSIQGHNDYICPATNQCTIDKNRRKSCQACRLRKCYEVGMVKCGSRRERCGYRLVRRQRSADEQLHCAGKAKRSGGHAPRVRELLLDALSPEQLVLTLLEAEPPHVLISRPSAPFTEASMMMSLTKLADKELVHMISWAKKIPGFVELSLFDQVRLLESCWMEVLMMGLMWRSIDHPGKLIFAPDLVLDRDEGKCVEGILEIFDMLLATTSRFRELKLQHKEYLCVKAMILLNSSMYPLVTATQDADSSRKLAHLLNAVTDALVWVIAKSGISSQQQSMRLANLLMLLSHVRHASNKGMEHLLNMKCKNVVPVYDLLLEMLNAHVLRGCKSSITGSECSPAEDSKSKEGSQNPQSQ

Compound | Ki (Estrogen receptor beta [1]) [nM] | Ki (Estrogen receptor [2]) [nM] | Ki (Estrogen receptor beta [3]) | Ki (Estrogen receptor [4])
CCCN(Cc1ccccn1)c1cc(-c2ccccc2)cc(-c2ccc(O)cc2)n1 | 710 | 180 | – | –
Cc1ccccc1-c1cc(-c2ccc(O)cc2)nc(N(C)CCc2ccccc2)c1 | 1100 | 650 | – | –
CCCN(Cc1ccccn1)c1cc(-c2ccccc2)cc(-c2ccc(O)cc2C)n1 | – | – | Not Active | Not Active
Cc1cc(-c2cc(-c3ccccc3)cc(N(C)CCN(C)C)n2)ccc1O | – | – | Not Active | Not Active
CCCN(Cc1ccccn1)c1cc(-c2ccccc2)cc(-c2ccc(O)c(C)c2)n1 | 330 | 70 | – | –
CN(CCc1ccccc1)c1cc(-c2ccccc2)cc(-c2ccc(O)cc2)n1 | 1050 | 490 | – | –
Cc1cc(-c2cc(-c3ccccc3)cc(N(CCc3ccccc3)Cc3ccccc3)n2)ccc1O | 250 | 130 | – | –
Cc1cc(-c2cc(-c3ccccc3)cc(N(C)Cc3cccc4ccccc34)n2)ccc1O | 1410 | 450 | – | –
Cc1cc(-c2cc(-c3ccccc3)cc(N(C)CC(C)C)n2)ccc1O | 660 | 210 | – | –
CCCCN(C)c1cc(-c2ccccc2)cc(-c2ccc(O)c(C)c2)n1 | 790 | 660 | – | –
Cc1cc(-c2cc(-c3ccccc3)cc(N(C)CCc3ccccc3)n2)ccc1O | 680 | 160 | – | –
Cc1cc(-c2cc(-c3ccccc3)cc(N3CCC(Cc4ccccc4)CC3)n2)ccc1O | 110 | 20 | – | –
CN(CCc1ccccc1)c1cc(-c2ccc(O)cc2)cc(-c2ccc(O)cc2)n1 | > 3000 | > 3000 | – | –
Cc1cc(-c2cc(-c3ccccc3)cc(N3CCCC3)n2)ccc1O | – | – | Not Active | Not Active
Cc1cc(-c2cc(-c3ccccc3)cc(N(C)Cc3ccccc3)n2)ccc1O | 1120 | 380 | – | –
Cc1cc(-c2cc(-c3ccccc3)cc(N(C)CCc3ccccn3)n2)ccc1O | > 3000 | 1260 | – | –
CC(C)CN(C)c1cc(-c2ccccc2)cc(-c2ccc(O)cc2)n1 | 1260 | 620 | – | –
CCOCCN(CCOCC)c1cc(-c2ccccc2)cc(-c2ccc(O)c(C)c2)n1 | 1170 | 2000 | – | –
CCN(Cc1ccncc1)c1cc(-c2ccccc2)cc(-c2ccc(O)c(C)c2)n1 | 1000 | 830 | – | –
